Test results from patent publication US11746100B2 (GLOBAL BLOOD THERAPEUTICS, INC., priority 2020, dated 2023).

Target: T1, human ferroportin (Homo sapiens, UniProt Q9NP59)
T1 construct: luciferase reporter (read with the Nano-Glo Luciferase Assay System); expressed in transfected cells; host or cells: CHO cells, stably transfected, expression induced with doxycycline
T1 sequence (Q9NP59 1-571): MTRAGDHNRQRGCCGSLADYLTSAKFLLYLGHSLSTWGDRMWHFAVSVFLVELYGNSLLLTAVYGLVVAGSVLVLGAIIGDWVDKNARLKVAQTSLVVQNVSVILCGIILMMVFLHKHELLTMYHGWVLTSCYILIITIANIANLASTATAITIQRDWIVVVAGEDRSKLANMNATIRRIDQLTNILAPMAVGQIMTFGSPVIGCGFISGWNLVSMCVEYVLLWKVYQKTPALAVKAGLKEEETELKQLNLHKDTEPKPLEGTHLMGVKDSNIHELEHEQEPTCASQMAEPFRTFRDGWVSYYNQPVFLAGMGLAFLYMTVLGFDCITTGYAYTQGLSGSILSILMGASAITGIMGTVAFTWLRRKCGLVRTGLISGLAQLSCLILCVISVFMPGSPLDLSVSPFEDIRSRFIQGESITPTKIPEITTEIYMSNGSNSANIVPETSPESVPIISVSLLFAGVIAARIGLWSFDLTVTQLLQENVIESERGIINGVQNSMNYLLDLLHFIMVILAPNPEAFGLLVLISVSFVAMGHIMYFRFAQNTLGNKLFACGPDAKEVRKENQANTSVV
Assay: Biological in-vitro ferroportin internalization assay (luciferase reporter)
Format: cell-based
Conditions: average pEC50; stably-transfected CHO cell line expressing human ferroportin tagged to a luciferase reporter; 6 h incubation with test compound
Method: The protocol for this assay is generally as described in WO2018/128828, incorporated herein by reference in its entirety. Functional internalization of ferroportin protein was measured using a stably-transfected CHO cell line expressing the human ferroportin tagged to a luciferase reporter. Cells were plated for 24 h in the presence of ferric ammonium citrate (FAC). Ferroportin protein expression was induced with doxycycline for 24 h. The next day, the compounds were added. Test compounds were dissolved in DMSO. Cells were incubated with the test compounds for 6 h, and subsequently luciferase activity was measured using the Nano-Glo Luciferase Assay System and Glomax (Promega, Madison, Wis.). The average pEC50 was determined for the test compounds.

| Structure (SMILES) | pEC50 |
| --- | --- |
| COc1ccnc(-c2nc3c(c(N(C)CC(=O)Nc4ccc(F)nc4)n2)CCC3)c1 [Compound 128, N-(6-fluoropyridin-3-yl)-2-{[2-(4-methoxypyridin-2-yl)-5H,6H,7H-cyclopenta[d]pyrimidin-4-yl](methyl)amino}acetamide] | 7.4 |
| CN(CC(=O)Nc1ccc2c(c1)OC(F)(F)O2)c1nc(-c2ccccn2)nc2c1CCC2 [Compound 32, N-(2,2-difluoro-2H-1,3-benzodioxol-5-yl)-2-{methyl[2-(pyridin-2-yl)-5H,6H,7H-cyclopenta[d]pyrimidin-4-yl]amino}acetamide] | 7.2 |
| CN(Cc1nc2ccccc2o1)c1nc(-c2ccccn2)nc2c1CCC2 [Compound 82, N-[(1,3-benzoxazol-2-yl)methyl]-N-methyl-2-(pyridin-2-yl)-5H,6H,7H-cyclopenta[d]pyrimidin-4-amine] | 6.8 |
| Cc1ccnc(-c2nc3c(c(N(C)CC(=O)NC(C)(C)C)n2)CCCC3)c1 [Compound 42, N-tert-butyl-2-{methyl[2-(4-methylpyridin-2-yl)-5,6,7,8-tetrahydroquinazolin-4-yl]amino}acetamide] | 7.3 |
| c1ccc(-c2nc3c(c(N4CCCO[C@@H]5CCC[C@@H]54)n2)CCC3)nc1 [Compound 48, 2-{4-[(5aS,8aR)-octahydro-2H-cyclopenta[b][1,4]oxazepin-5-yl]-5H,6H,7H-cyclopenta[d]pyrimidin-2-yl}pyridine] | 6.8 |
| c1ccc(-c2nc3c(c(N4CCCCCC4)n2)CCC3)nc1 [Compound 92, 1-[2-(pyridin-2-yl)-5H,6H,7H-cyclopenta[d]pyrimidin-4-yl]azepane] | 6.5 |
| CN(Cc1ccccn1)c1nc(-c2ccccn2)nc2c1CCC2 [Compound 73, N-methyl-2-(pyridin-2-yl)-N-[(pyridin-2-yl)methyl]-5H,6H,7H-cyclopenta[d]pyrimidin-4-amine] | 6.8 |
| CN(CC(=O)NC(C)(C)C)c1nc(-c2cc3cn[nH]c3cn2)nc2c1CCC2 [Compound 110, N-tert-butyl-2-[methyl(2-{1H-pyrazolo[3,4-c]pyridin-5-yl}-5H,6H,7H-cyclopenta[d]pyrimidin-4-yl)amino]acetamide] | 7.9 |
| CN(c1nc(-c2ccccn2)nc2c1CCC2)[C@H]1CCN(c2ccccc2)C1=O [Compound 131, (3S)-3-{methyl[2-(pyridin-2-yl)-5H,6H,7H-cyclopenta[d]pyrimidin-4-yl]amino}-1-phenylpyrrolidin-2-one] | 7.1 |
| CN(CC(=O)Nc1cccc(F)c1)c1nc(-c2cc(O[C@H]3C[C@@H](O)C3)ccn2)nc2c1CCC2 [Compound 345, N-(3-fluorophenyl)-2-[methyl(2-{4-[(1s,3s)-3-hydroxycyclobutoxy]pyridin-2-yl}-5H,6H,7H-cyclopenta[d]pyrimidin-4-yl)amino]acetamide] | 6.7 |
| COc1ccc(NC2CCCN(c3nc(-c4ccccn4)nc4c3CCC4)C2)cc1 (stereo not shown) [Compound 11, N-(4-methoxyphenyl)-1-[2-(pyridin-2-yl)-5H,6H,7H-cyclopenta[d]pyrimidin-4-yl]piperidin-3-amine] | 6.3 |
| COc1ccnc(-c2nc3c(c(N(C)CC(=O)Nc4cccc(F)c4)n2)CCC3)c1 [Compound 138, N-(3-fluorophenyl)-2-{[2-(4-methoxypyridin-2-yl)-5H,6H,7H-cyclopenta[d]pyrimidin-4-yl](methyl)amino}acetamide] | 7.8 |
| CN(CC(=O)NC(C)(C)C)c1nc(-c2cc3c(cn2)OCCO3)nc2c1CCC2 [Compound 122, N-tert-butyl-2-[(2-{2H,3H-[1,4]dioxino[2,3-c]pyridin-7-yl}-5H,6H,7H-cyclopenta[d]pyrimidin-4-yl)(methyl)amino]acetamide] | 7.8 |
| CN(CC(=O)Nc1ccc(F)nc1)c1nc(-c2cn(C)cn2)nc2c1CCC2 [Compound 129, N-(6-fluoropyridin-3-yl)-2-{methyl[2-(1-methyl-1H-imidazol-4-yl)-5H,6H,7H-cyclopenta[d]pyrimidin-4-yl]amino}acetamide] | 7.2 |

Further lines, results first:

| pEC50 | Structure (SMILES) |
| --- | --- |
| 7.6 | CC(C)(O)COc1ccnc(-c2nc3c(c(NCC(=O)NC(C)(C)C)n2)CCC3)c1 [Compound 409, N-tert-butyl-2-({2-[4-(2-hydroxy-2-methylpropoxy)pyridin-2-yl]-5H,6H,7H-cyclopenta[d]pyrimidin-4-yl}amino)acetamide] |
| 8.5 | CN(CC(=O)NC(C)(C)C)c1nc(-c2cc(OCC3(O)CCCCC3)ccn2)nc2c1CCC2 [Compound 396, N-tert-butyl-2-[(2-{4-[(1-hydroxycyclohexyl)methoxy]pyridin-2-yl}-5H,6H,7H-cyclopenta[d]pyrimidin-4-yl)(methyl)amino]acetamide] |
| 7.7 | CN(CC(=O)N(C)C(C)(C)C)c1nc(-c2cc(OC3COC3)ccn2)nc2c1CCC2 [Compound 322, N-tert-butyl-N-methyl-2-[methyl({2-[4-(oxetan-3-yloxy)pyridin-2-yl]-5H,6H,7H-cyclopenta[d]pyrimidin-4-yl})amino]acetamide] |
| 7.6 | COc1ccnc(-c2nc3c(c(N(C)CC(=O)Nc4cnc(OC)nc4)n2)CCC3)c1 [Compound 153, 2-{[2-(4-methoxypyridin-2-yl)-5H,6H,7H-cyclopenta[d]pyrimidin-4-yl](methyl)amino}-N-(2-methoxypyrimidin-5-yl)acetamide] |
| 6.3 | COc1ccc(N2CCN(c3nc(-c4ccccn4)nc4c3CCC4)CCC2=O)cc1 [Compound 203, 4-(4-methoxyphenyl)-1-[2-(pyridin-2-yl)-5H,6H,7H-cyclopenta[d]pyrimidin-4-yl]-1,4-diazepan-5-one] |
| 7.6 | [2H]C([2H])([2H])N(CCOc1ccnc(-c2nc3c(c(N(C)CC(=O)NC(C)(C)C)n2)CCC3)c1)C([2H])([2H])[2H] [Compound 508, N-tert-butyl-2-{[2-(4-{2-[di(2H3)methylamino]ethoxy}pyridin-2-yl)-5H,6H,7H-cyclopenta[d]pyrimidin-4-yl](methyl)amino}acetamide] |
| 8 | COc1ccc(NC(=O)CN(C)c2nc(-c3cc(OCCO)ccn3)nc3c2CCC3)nc1 [Compound 209, 2-({2-[4-(2-hydroxyethoxy)pyridin-2-yl]-5H,6H,7H-cyclopenta[d]pyrimidin-4-yl}(methyl)amino)-N-(5-methoxypyridin-2-yl)acetamide] |
| 8.4 | CN(CC(=O)NC(C)(C)C)c1nc(-c2cc(OCCN3C[C@H]4C[C@@H]3CO4)ccn2)nc2c1CCC2 [Compound 462, N-tert-butyl-2-{methyl[2-(4-{2-[(1R,4R)-2-oxa-5-azabicyclo[2.2.1]heptan-5-yl]ethoxy}pyridin-2-yl)-5H,6H,7H-cyclopenta[d]pyrimidin-4-yl]amino}acetamide] |
| 7.9 | CC(C)NC(=O)[C@@H](C)N(C)c1nc(-c2cc(O[C@@H]3CCN(C)C3)ccn2)nc2c1CCC2 [Compound 504, (2R)-2-{methyl[2-(4-{[(3R)-1-methylpyrrolidin-3-yl]oxy}pyridin-2-yl)-5H,6H,7H-cyclopenta[d]pyrimidin-4-yl]amino}-N-(propan-2-yl)propanamide] |
| 7.7 | CN(CC(=O)NC1(C)CCCC1)c1nc(-c2cc3cn[nH]c3cn2)nc2c1CCC2 [Compound 184, 2-[methyl(2-{1H-pyrazolo[3,4-c]pyridin-5-yl}-5H,6H,7H-cyclopenta[d]pyrimidin-4-yl)amino]-N-(1-methylcyclopentyl)acetamide] |
| 6.8 | C[C@H](C(=O)Nc1ccc(C(F)(F)F)nc1)N(C)c1nc(-c2cc3ccccc3cn2)nc2c1CCC2 [Compound 274, (2R)-2-{[2-(isoquinolin-3-yl)-5H,6H,7H-cyclopenta[d]pyrimidin-4-yl](methyl)amino}-N-[6-(trifluoromethyl)pyridin-3-yl]propanamide] |
| 8.2 | C[C@H]1C[C@@H](Oc2ccnc(-c3nc4c(c(N(C)CC(=O)NC(C)(C)C)n3)CCC4)c2)CN1C [Compound 502, N-tert-butyl-2-{[2-(4-{[(3R,5S)-1,5-dimethylpyrrolidin-3-yl]oxy}pyridin-2-yl)-5H,6H,7H-cyclopenta[d]pyrimidin-4-yl](methyl)amino}acetamide] |
| 7.3 | CN(C)CCOc1ccnc(-c2nc3c(c(N(C)CC(=O)NC4CC4)n2)CCC3)c1 [Compound 500, N-cyclopropyl-2-[(2-{4-[2-(dimethylamino)ethoxy]pyridin-2-yl}-5H,6H,7H-cyclopenta[d]pyrimidin-4-yl)(methyl)amino]acetamide] |
| 7.8 | COCCOc1ccnc(-c2nc3c(c(N(C)CC(=O)NC(C)(C)C)n2)CCC3)c1 [Compound 239, N-tert-butyl-2-({2-[4-(2-methoxyethoxy)pyridin-2-yl]-5H,6H,7H-cyclopenta[d]pyrimidin-4-yl}(methyl)amino)acetamide] |
